The record followed here is the Kinase Knowledgebase extract (Sharma et al. 2016).

The structures appear in SMILES notation. pIC50: −log10 of the molar value.

This test has as its target PIK3CG (human) (UniProt P48736). Nature of the test: Inhibition of PIK3CG Kinase Activity.

PIK3CG (human), sequence (P48736 whole entry, looked up): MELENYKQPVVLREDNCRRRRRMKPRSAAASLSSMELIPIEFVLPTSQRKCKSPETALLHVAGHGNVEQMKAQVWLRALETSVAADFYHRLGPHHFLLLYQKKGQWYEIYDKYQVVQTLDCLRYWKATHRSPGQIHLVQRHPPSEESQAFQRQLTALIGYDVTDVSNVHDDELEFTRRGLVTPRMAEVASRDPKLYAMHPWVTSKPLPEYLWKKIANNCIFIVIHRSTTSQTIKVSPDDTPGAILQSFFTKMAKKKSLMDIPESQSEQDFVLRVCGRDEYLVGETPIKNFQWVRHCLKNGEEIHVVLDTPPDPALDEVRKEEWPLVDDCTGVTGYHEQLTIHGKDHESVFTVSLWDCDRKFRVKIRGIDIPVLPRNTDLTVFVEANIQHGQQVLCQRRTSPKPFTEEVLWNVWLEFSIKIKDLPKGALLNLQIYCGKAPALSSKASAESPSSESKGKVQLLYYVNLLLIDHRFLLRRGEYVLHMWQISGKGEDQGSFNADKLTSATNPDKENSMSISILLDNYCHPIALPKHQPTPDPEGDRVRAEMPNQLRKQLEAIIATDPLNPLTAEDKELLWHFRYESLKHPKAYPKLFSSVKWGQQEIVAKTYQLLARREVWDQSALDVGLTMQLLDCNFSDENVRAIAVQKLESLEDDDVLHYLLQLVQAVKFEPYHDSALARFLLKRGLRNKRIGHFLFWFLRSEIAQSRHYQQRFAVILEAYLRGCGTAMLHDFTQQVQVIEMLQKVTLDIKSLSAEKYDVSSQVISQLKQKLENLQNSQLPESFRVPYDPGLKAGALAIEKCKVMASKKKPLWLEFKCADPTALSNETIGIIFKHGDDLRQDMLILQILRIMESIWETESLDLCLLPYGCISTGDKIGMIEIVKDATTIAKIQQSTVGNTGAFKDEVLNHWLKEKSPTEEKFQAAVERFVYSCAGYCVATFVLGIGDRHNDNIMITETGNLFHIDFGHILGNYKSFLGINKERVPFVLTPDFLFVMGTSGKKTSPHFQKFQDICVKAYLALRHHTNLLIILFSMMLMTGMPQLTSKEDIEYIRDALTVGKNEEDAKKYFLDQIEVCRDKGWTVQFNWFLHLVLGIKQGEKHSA

Consider `Cc1nc(Nc2nnc(N3CCN(C)CC3)s2)sc1-c1ccc(S(C)(=O)=O)c(C(F)(F)F)c1`, for which the pIC50 is over 6.22. The compound `Cc1nc(Nc2cnccn2)sc1-c1cccc(S(N)(=O)=O)c1` showed a negative logarithm of the IC50 (pIC50) of over 6.22. In turn, `Cc1nc(Nc2ccn(C)n2)sc1-c1ccc(Cl)c(S(=O)(=O)NCCO)c1` had a pIC50 of over 6.22. The compound `COc1ccc(-c2sc(Nc3cnccn3)nc2C)cc1S(N)(=O)=O` had a pIC50 of over 6.22. Compound `Cc1nc(Nc2cc[nH]n2)sc1-c1ccc(C(=O)O)cc1` had a pIC50 of over 6.22. `Cc1nc(Nc2nccs2)sc1-c1ccc(Cl)c(S(=O)(=O)NCCO)c1` gave a pIC50 of over 6.22. In the case of `Cc1cnc(Nc2nc(C)c(-c3ccc(C(=O)O)cc3)s2)s1` it was over 6.22. With `Cc1nc(Nc2cncc(N3CCN(C)CC3)n2)sc1-c1ccc(S(C)(=O)=O)c(C(F)(F)F)c1`, the pIC50 was over 6.22. `CNS(=O)(=O)c1ccc(-c2sc(Nc3cncc(OC)n3)nc2C)cc1` had a pIC50 of over 6.22.

Compound `Cc1nc(Nc2cnccn2)sc1-c1ccc(S(=O)(=O)NC2CC2)cc1` gave a pIC50 of over 6.22.

The compound `Cc1nc(Nc2cncc(NCCN3CCOCC3)n2)sc1-c1ccc(S(N)(=O)=O)cc1` had a pIC50 of over 6.22. `CCCc1nccn1-c1cc(-c2sc(Nc3nnc(CC)s3)nc2C)ccc1S(C)(=O)=O` had a pIC50 of over 6.22. The same measure for `CCc1nnc(Nc2nc(C)c(-c3cccc(S(N)(=O)=O)c3)s2)s1`: over 6.22; for `Cc1nc(Nc2cc[nH]n2)sc1-c1ccc(S(C)(=O)=O)c(OCCN2CCOCC2)c1`: over 6.22; for `Cc1nc(Nc2cccnc2)sc1-c1ccc(S(N)(=O)=O)cc1`: over 6.22. On to `Cc1nc(Nc2nnc(CCC(=O)O)s2)sc1-c1ccc(S(N)(=O)=O)cc1`, for which the pIC50 was over 6.22. The same measure for `Cc1nc(Nc2n[nH]cc2Br)sc1-c1ccc(S(C)(=O)=O)c(F)c1`: over 6.22; for `COc1cc(Nc2nc(C)c(-c3ccc(S(N)(=O)=O)cc3)s2)ncn1`: over 6.22. `Cc1nc(Nc2cncc(Cl)n2)sc1-c1ccc(S(N)(=O)=O)cc1` showed a negative logarithm of the IC50 (pIC50) of over 6.22.

Regarding `Cc1nc(Nc2cnccn2)sc1-c1ccc(S(N)(=O)=O)cc1`, the pIC50 was over 6.22.

In the case of `Cc1nc(Nc2nnc(CCN(C)C)s2)sc1-c1ccc(S(N)(=O)=O)cc1`, the pIC50 was over 6.22. Take `Cc1nc(Nc2cc[nH]n2)sc1-c1ccc(S(C)(=O)=O)c(F)c1`: the pIC50 is over 6.22. The same measure for `Cc1nc(Nc2cnccn2)sc1-c1ccc(S(C)(=O)=O)cc1`: over 6.22.

In turn, `Cc1nc(Nc2cncc(Cl)n2)sc1-c1ccc(S(C)(=O)=O)c(C(F)(F)F)c1` had a pIC50 of over 6.22. As for `CCOc1cccc(Nc2nc(C)c(-c3ccc(S(N)(=O)=O)cc3)s2)n1`, the pIC50 was over 6.22. For `Cc1nc(Nc2cc[nH]n2)sc1-c1ccc(Cl)c(S(=O)(=O)N(CCO)CCO)c1`, the pIC50 was over 6.22.

Take `Cc1nc(Nc2cncc(N3CCOCC3)n2)sc1-c1ccc(S(N)(=O)=O)cc1`: the pIC50 is over 6.22. As to `CCc1nnc(Nc2nc(C)c(-c3ccc(S(=O)(=O)NCCO)cc3)s2)s1`, the pIC50 was over 6.22.

In the case of `Cc1nc(Nc2ncccn2)sc1-c1ccc(S(N)(=O)=O)cc1`, the pIC50 was over 6.22. The same measure for `Cc1nc(Nc2cccnc2)sc1-c1ccc(S(C)(=O)=O)c(Cl)c1`: over 6.22; for `Cc1nnc(Nc2nc(C)c(-c3ccc(S(N)(=O)=O)cc3)s2)s1`: over 6.22. In the case of `Cc1nc(Nc2cncc(Cl)n2)sc1-c1ccc(S(C)(=O)=O)cc1`, the pIC50 was over 6.22. Compound `Cc1nc(Nc2nnc(CCN3CCOCC3)s2)sc1-c1ccc(S(C)(=O)=O)c(C(F)(F)F)c1` showed a pIC50 of over 6.22. Take `Cc1nc(Nc2ccn(C)n2)sc1-c1ccc(S(C)(=O)=O)c(F)c1`: the pIC50 is over 6.22. The same measure for `Cc1nc(Nc2cnccn2)sc1-c1ccc([S+](C)[O-])cc1` (centres undefined): over 6.22.

With `Cc1nc(Nc2cc[nH]n2)sc1-c1cccc(S(N)(=O)=O)c1`, the pIC50 was over 6.22. `Cc1nc(Nc2ccncc2)sc1-c1ccc(S(N)(=O)=O)cc1` had a pIC50 of over 6.22.

In the case of `Cc1nc(Nc2nnc(CCN3CCOCC3)s2)sc1-c1ccc(S(N)(=O)=O)cc1`, the pIC50 is over 6.22. Turning to `COc1cncc(Nc2nc(C)c(-c3ccc(S(=O)(=O)NC4CC4)cc3)s2)n1`, the pIC50 was over 6.22. For the compound `Cc1nc(Nc2cnccn2)sc1-c1ccc(S(C)(=O)=O)c(-n2ccnc2)c1`, the pIC50 was over 6.22. Compound `Cc1nc(Nc2nccs2)sc1-c1ccc(S(N)(=O)=O)cc1` showed a pIC50 of over 6.22. Compound `Cc1nc(Nc2nncs2)sc1-c1ccc(S(N)(=O)=O)cc1` had a pIC50 of over 6.22. In the case of `Cc1nc(Nc2nnn[nH]2)sc1-c1ccc(S(N)(=O)=O)cc1` it was over 6.22. For the compound `CCN(CC)CCCNc1cncc(Nc2nc(C)c(-c3ccc(S(N)(=O)=O)cc3)s2)n1`, the pIC50 is over 6.22. With `Cc1nc(Nc2cc[nH]n2)sc1-c1ccc(S(C)(=O)=O)c(N2CCN(C)CC2)c1`, the pIC50 is over 6.22.

`CNS(=O)(=O)c1ccc(-c2sc(Nc3cnccn3)nc2C)cc1`: the pIC50 was over 6.22. For the compound `Cc1nc(Nc2cnccn2)sc1-c1ccc(S(C)(=O)=O)c(-n2ccnc2C(C)C)c1`, the pIC50 was over 6.22. In the case of `Cc1csc(Nc2nc(C)c(-c3ccc(S(N)(=O)=O)cc3)s2)n1` it was over 6.22; in that of `Cc1nc(Nc2cnccn2)sc1-c1cccc(S(=O)(=O)NCCO)c1`, over 6.22. Consider `Cc1nc(Nc2cc[nH]n2)sc1-c1ccc(S(N)(=O)=O)cc1`, for which the pIC50 is over 6.22. As to `Cc1cc(Nc2nc(C)c(-c3ccc(Cl)c(S(=O)(=O)NCCO)c3)s2)n(C)n1`, the pIC50 is over 6.22. As to `Cc1nc(Nc2ccc(Cl)nn2)sc1-c1ccc(S(N)(=O)=O)cc1`, the pIC50 was over 6.22.

`COc1ccc(Nc2nc(C)c(-c3ccc(S(N)(=O)=O)cc3)s2)cn1`: the pIC50 is over 6.22. `Cc1nc(Nc2cc[nH]n2)sc1-c1cccc(S(=O)(=O)NCCO)c1` showed a pIC50 of over 6.22. In the case of `CCN(CC)CCCNS(=O)(=O)c1cc(-c2sc(Nc3cc[nH]n3)nc2C)ccc1Cl` it was over 6.22; in that of `Cc1nnc(Nc2nc(C)c(-c3ccc(S(C)(=O)=O)c(-n4ccnc4)c3)s2)s1`, over 6.22; in that of `Cc1nc(Nc2nnc(C3CCC(C(=O)O)CC3)s2)sc1-c1ccc(S(C)(=O)=O)c(C(F)(F)F)c1` (centres undefined), over 6.22.

For the compound `CCc1nccn1-c1cc(-c2sc(Nc3cnccn3)nc2C)ccc1S(C)(=O)=O`, the pIC50 was over 6.22.

As for `Cc1nc(Nc2ccc(Cl)cn2)sc1-c1ccc(S(N)(=O)=O)cc1`, the pIC50 was over 6.22. Take `Cc1nc(Nc2ccc(N3CCN(C)CC3)nc2)sc1-c1ccc(S(C)(=O)=O)cc1`: the pIC50 is over 6.22.

`Cc1cnc(Nc2nc(C)c(-c3ccc(Cl)c(S(=O)(=O)NCCO)c3)s2)s1` had a pIC50 of over 6.22. The same measure for `Cc1nc(Nc2cc[nH]n2)sc1-c1ccc(Cl)c(S(=O)(=O)NCCO)c1`: over 6.22; for `Cc1nc(Nc2nc[nH]n2)sc1-c1ccc(S(N)(=O)=O)cc1`: over 6.22; for `CCN(CC)CCN(C)c1cc(-c2sc(Nc3cc[nH]n3)nc2C)ccc1S(C)(=O)=O`: over 6.22. Compound `Cc1nc(Nc2cnccn2)sc1-c1ccc(S(C)(=O)=O)c(C(F)(F)F)c1` had a pIC50 of over 6.22. With `Cc1nc(Nc2ccccn2)sc1-c1ccc(S(N)(=O)=O)cc1`, the pIC50 was over 6.22. `Cc1nc(Nc2cncc(NCCCO)n2)sc1-c1ccc(S(N)(=O)=O)cc1` had a pIC50 of over 6.22. For the compound `Cc1nc(Nc2nnc(N3CCOCC3)s2)sc1-c1ccc(S(C)(=O)=O)c(C(F)(F)F)c1`, the pIC50 is over 6.22. The same measure for `Cc1nc(Nc2cnccn2)sc1-c1ccc(S(N)(=O)=O)c(Cl)c1`: over 6.22. Consider `Cc1nc(Nc2cc[nH]n2)sc1-c1ccc(S(C)(=O)=O)c(-n2ccnc2)c1`, for which the pIC50 was over 6.22. `Cc1nc(Nc2cnccn2)sc1-c1ccc(C(=O)O)cc1` had a pIC50 of over 6.22. As for `Cc1nc(Nc2cncc(N3CCN(C)CC3)n2)sc1-c1ccc(S(N)(=O)=O)cc1`, the pIC50 was over 6.22. `Cc1nc(Nc2cnccn2)sc1-c1ccc(Cl)c(S(=O)(=O)NCCO)c1` had a pIC50 of over 6.22. The compound `Cc1nc(Nc2cnccn2)sc1-c1ccc(S(C)(=O)=O)c(-n2ccnc2C)c1` showed a pIC50 of over 6.22. The compound `Cc1nc(Nc2cc[nH]n2)sc1-c1ccc(S(C)(=O)=O)c(C(F)(F)F)c1` had a pIC50 of over 6.22. The compound `Cc1nc(Nc2nnc(CCC(=O)O)s2)sc1-c1ccc(S(C)(=O)=O)c(C(F)(F)F)c1` had a pIC50 of over 6.22. The same measure for `CCCc1nccn1-c1cc(-c2sc(Nc3cc[nH]n3)nc2C)ccc1S(C)(=O)=O`: over 6.22. `Cc1nc(Nc2nnc(CC(=O)O)s2)sc1-c1ccc(S(N)(=O)=O)cc1`: the pIC50 was over 6.22. `COc1cncc(Nc2nc(C)c(-c3ccc(S(N)(=O)=O)cc3)s2)n1` gave a pIC50 of over 6.22. `CCOC(=O)CCc1nnc(Nc2nc(C)c(-c3ccc(S(N)(=O)=O)cc3)s2)s1` gave a pIC50 of over 6.22. The same measure for `COc1ccc(Nc2nc(C)c(-c3ccc(Cl)c(S(C)(=O)=O)c3)s2)cn1`: over 6.22; for `Cc1nc(Nc2cnccn2)sc1-c1ccc(Cl)c(S(N)(=O)=O)c1`: over 6.22; for `Cc1cnc(Nc2nc(C)c(-c3ccc(S(N)(=O)=O)cc3)s2)s1`: over 6.22. Take `Cc1nc(Nc2cccnc2)sc1-c1ccc(S(N)(=O)=O)c(Cl)c1`: the negative logarithm of the IC50 (pIC50) was over 6.22.

As usually defined, the pIC50 is −log10 of the IC50, conventionally taken in molar units.
